Entries after “also recorded” stand apart in the source; their conditions may differ.
Tests used:
human individual = experiment: Topical MC903 application to arm or leg of human individuals (remote effects on sebum, dry skin, scalp hair, dry eye); assay type: in vivo
Procedure: MC903 was applied topically to the right arm of an individual daily. Sebum measurements were obtained by cleaning the forehead with ethanol wipe, resting for 15 minutes, and placing sebutape on the forehead for 2 minutes. Black dots on the blue and white background of the tape indicates the presence of sebum at each day post treatment.
MC903 was applied topically to the right arm of an individual daily. Photographs of the right hand before and after 3 or 5 days post treatment is shown. The individual was treated for 14 days total with no need of hand cream at least 9 weeks even after treatment was discontinued. In certain embodiments, secretion of sebum lasts after cessation of treatment.
MC903 was applied topically to the left arm daily of an individual for 14 days (1st treatment). Treatment was stopped for 4 weeks and restarted for an additional 2 weeks (2nd treatment) on the right arm daily. Photographs of the scalp before, 2 weeks after 1st treatment, 11 days after 2nd treatment, and 8 weeks after 2nd treatment are shown.[…].
MC903 was applied topically to the left arm daily of an individual and the right leg another individual for 14 days (1st treatment). The presence of dry eye symptoms was subjectively evaluated in the two individuals before and after treatment. The response is plotted in a bar graph.

HFD-fed mice = experiment: Topical MC903 in HFD-fed WT C57BL/6 mice (weight gain, eWAT, GTT, HOMA-IR, liver histology); assay type: in vivo, mouse
Procedure: WT C57BL/6 mice were fed a normal chow (NC) or 40% high fat diet (HFD) for 12 weeks. The mice were topically treated with either vehicle (EtOH) or MC903 (2 nmol/ear) on both ears Monday, Wednesday, and Friday on odd weeks. (FIG. 1A) Mice were weighed weekly and % change from baseline is plotted as mean±SEM. (FIG. 1B) The mice were euthanized on Week 12 and the epididymal fat pads were weighed. (FIG. 1C, FIG. 1D) Glucose tolerance test was performed on Week 12 by injection of glucose and subsequent measurements of blood glucose levels. HOMA-IR analysis was performed after an overnight fast at Week 12. *, **, and *** indicate statistical significance of p<0.05, p<0.01, and p<0.001, respectively by Student t-test or ANOVA.
WT C57BL/6 mice were fed a normal chow (NC) or 40% high fat diet (HFD) for 12 weeks. The mice were topically treated with either vehicle (EtOH) or MC903 (2 nmol/ear) on both ears Monday, Wednesday, and Friday on odd weeks. Shown are representative histological images of the liver on Week 12.
Wildtype C57BL/6 mice were fed a normal chow (NC) or 40% high fat diet (HFD) for 12 weeks. The mice were topically treated with either vehicle (EtOH) or MC903 (2 nmol/ear) on both ears Monday, Wednesday, and Friday on odd weeks. (A) Mice were weighed weekly and % change from baseline is plotted as mean±SEM. (B) The mice were euthanized on Week 12 and the epididymal fat pads were weighed. (C, D) Glucose tolerance test (GTT) was performed on Week 12 by injection of glucose and subsequent measurements of blood glucose levels. Homeostatic model assessment-insulin resistance (HOMA-IR) analysis was performed after an overnight fast at Week 12. *, **, and *** indicate statistical significance of p<0.05, p<0.01, and p<0.001, respectively by Student t-test or ANOVA.
C57BL/6 mice were fed a normal chow (NC) or 40% high fat diet (HFD) for 12 weeks. The mice were topically treated with either vehicle (EtOH) or MC903 (2 nmol/ear) on both ears Monday, Wednesday, and Friday on odd weeks. Shown are representative histological images of the liver on Week 12.

HFD-fed TSLP-R KO mice = experiment: Topical MC903 in HFD-fed TSLP-R KO mice; assay type: in vivo, mouse; conditions: HFD-fed TSLP-R-deficient mice, topical MC903 2 nmol/ear, 12 weeks
Procedure: (§1) TSLP-R KO mice were fed a normal chow (NC) or 40% high fat diet (HFD) for 12 weeks. The mice were topically treated with either vehicle (EtOH) or MC903 (2 nmol/ear) on both ears Monday, Wednesday, and Friday on odd weeks. Mice were weighed on the indicated time points and plotted as mean±SEM. Glucose tolerance test was performed on Week 12 by injection of glucose and subsequent measurements of blood glucose levels. AUC analysis is performed on the GTT curves. * indicates statistical significance of p<0.05 by Student t-test.
as §1, with “TSLP-R knock out (KO) mice were” for “TSLP-R KO mice were”, “tolerance test (GTT) was performed” for “tolerance test was performed”

[1] = HFD-fed mice, Week 12, vs vehicle

C=C1/C(=C\C=C2/CCC[C@]3(C)[C@@H]([C@H](C)/C=C/[C@@H](O)C4CC4)CC[C@@H]23)C[C@@H](O)C[C@@H]1O [MC903, 26,27-cyclo-22-ene-1α,24S-dihydroxyvitamin D3]
time with no need of hand cream after treatment was discontinued (human individual; human individual treated for 14 days total): at least 9 weeks
scalp hair growth (human individual; human individual, 2 cycles of 2-week topical MC903 on the arm): substantial recovery of hair growth; also recorded: remotely promotes scalp hair growth
sebum on the forehead (sebutape) (human individual; one human individual, MC903 topically on the arm daily): increasing amounts of sebum on the forehead; also recorded: remotely increases sebum secretion
eczematous dry skin of a hand (human individual; one human individual, MC903 topically on the right arm daily): marked improvement; also recorded: remotely cures dry skin of the hand
dry eye symptoms (subjective) (human individual; two human individuals, MC903 on arm or leg daily for 14 days): improvement in dry eye symptoms; also recorded: remotely improves dry eye symptoms
weight gain (HFD-fed mice; HFD-fed WT C57BL/6 mice, topical MC903 2 nmol/ear, 12 weeks, vs vehicle (EtOH)): significantly reduced weight gain; also recorded: significantly less weight gain; also recorded: prevention weight gain
epididymal white adipose tissue (eWAT) weight (HFD-fed mice; [1]): significantly decreased
fat deposition in the liver (histology) (HFD-fed mice; [1]): markedly reduced; also recorded: appeared very similar to the tissue of mice fed with normal chow; also recorded: prevention of HFD-induced hepatosteatosis
metabolic parameters (GTT and HOMA-IR) (HFD-fed mice; [1]): improved metabolic parameters; also recorded: improvement in metabolic parameters
weight gain and metabolic parameters (HFD-fed TSLP-R KO mice): does not prevent weight gain or improve metabolic parameters
